Consider 13 compounds from PubChem BioAssay (NCI).

Common to all, as to test: DTP human tumour cell line panel, 48 h
Assay [1] deals with SK-MEL-2 melanoma.
In assay [2] the test system is SK-MEL-5 melanoma.
Assay [3] deals with UACC-62 melanoma.
Assay [4] deals with OVCAR-4 ovarian.
Assay [5] has as its system SN12C renal.
In assay [6] the test system is RXF 393 renal.
The subject of assay [7] is HCT-15 colon.
The subject of assay [8] is HOP-92 NSCLC.
Assay [9] deals with COLO 205 colon.
Assay [10] relates to CCRF-CEM leukemia.

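96-well plates; 48 h exposure; 5 concentrations. Endpoints by linear interpolation between flanking doses. Not reached: highest tested concentration assigned. GI50 is the concentration that inhibits growth by half. TGI denotes the concentration required for complete inhibition of growth.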

For the compound `CCOC(=O)NC(=O)c1cn(C2OC(CO)C(O)C2O)c(=O)[nH]c1=O` (stereo unspecified), the TGI in [1], in assay [2], in assay [3], in [4], in [5] and in assay [6] was above 100 µM in each case. The TGI – broadly, the concentration at which net growth stops – in assay [7] is above 100 µM.

Take `C=Cc1cnc([N+](=O)[O-])n1C`: the total growth inhibition concentration (TGI) in assay [2], in assay [8], in assay [9], in assay [10], in [5] and in [7] was above 100 µM in each case.

Regarding `O=C(Nc1ccccc1C(=O)O)C(=O)C(C(=O)c1ccccc1-c1ccccc1)C1OC(=O)c2ccccc21` (stereo unspecified), the TGI in assay [1] was above 100 µM; in assay [2], 33.9 µM; in [3] it was 35.7 µM; in assay [4] it was above 100 µM; in [9] it was 47.5 µM; in [10], 78.4 µM. Also, the TGI in assay [5] was found to be 39.1 µM; in [6] it was 27.2 µM; in [7] it was 30.6 µM.

Take `C=C1C[C@@H]2[C@H](CC[C@]3(C)C(=O)CC[C@@H]23)[C@@]2(C)C=CC(=O)C=C12`: the TGI in [1] was above 28.3 µM; in assay [2], 33.7 µM; in [8], above 100 µM; in [3], 30 µM; in [4], above 100 µM; in [9], 41 µM. In addition, the TGI in assay [10] was above 74.9 µM; in assay [5], above 63.5 µM; in [7], 34.3 µM. Further, the GI50 (as a rule, the concentration giving 50% growth inhibition) was 7.5 µM in assay [2]; above 100 µM in assay [8]; 8.11 µM in assay [3]; 42.7 µM in [4]; 20.3 µM in assay [9]; 24.5 µM in assay [10]. Besides, the GI50 in assay [5] was 21 µM; in assay [7], 10 µM.

Turning to `CC(C)=CCC/C(C)=C/[C@H]1OC(=O)CC12C[C@H](O)C=CC2=O` (stereo partly specified), the GI50 in assay [1] is 1.74 µM; in assay [2], 1.35 µM; in assay [8], 1.21 µM; in assay [3] it was 1.34 µM; in assay [9], 1.1 µM; in [10] it was 0.171 µM. The results for the GI50 in [5] and in assay [7] were 0.529 µM and 0.509 µM, respectively. For the same compound, the TGI in assay [1] is above 45.1 µM; in assay [2] it was 3.17 µM; in assay [8], 3.06 µM; in assay [3], 2.68 µM; in assay [9], 3.72 µM; in assay [10], 0.521 µM. The TGI in assay [5] was 2 µM; in assay [7], above 100 µM.

As to `COC(=O)C1=C(c2cc(OC)c(OC)c(OC)c2)O[C@H](c2ccc3c(c2)OCO3)[C@H]1COC(C)=O`, the TGI is above 100 µM in [1]; 29.8 µM in assay [2]; 54.4 µM in assay [8]; above 100 µM in assay [4]; 26.3 µM in assay [9]; above 100 µM in [10]. The values for the total growth inhibition concentration (TGI) in [5] and in assay [7] were 96.2 µM and above 100 µM, respectively.

With `C/C=C/C(=O)[O-].N.N.N.N.N.[Co+3].[O-][Cl+3]([O-])([O-])[O-]`, the GI50 in assay [1], in assay [2], in assay [8], in [3], in assay [4] and in [9] was above 100 µM throughout. In addition, the GI50 in assay [10], in [5] and in assay [7] was above 100 µM each time. The concentration for total growth inhibition (TGI) in assay [1], in [2], in assay [8], in assay [3], in [4] and in assay [9] was above 100 µM throughout. In addition, the TGI in assay [10], in assay [5] and in assay [7] was above 100 µM throughout.

On to `c1ccc(-c2cnc3nc4ccccc4nc3n2)cc1`, for which the concentration for total growth inhibition (TGI) in [1] worked out at 15.1 µM; in [2], 12.3 µM; in [3] it was 15.4 µM; in assay [4] it was 19.5 µM; in assay [9], 17.6 µM; in assay [10] it was 10.2 µM. The values for the TGI in assay [5] and in assay [7] were 31.5 µM and above 100 µM, respectively.

Regarding `COc1cc(CC2CC(c3ccc4c(c3)OCO4)OC2=O)cc(OC)c1OC` (stereo unspecified), the concentration for total growth inhibition (TGI) in [2], in assay [8], in [3], in assay [9], in [10] and in assay [5] was above 100 µM each time. The TGI in assay [6] and in assay [7] was above 100 µM in each case.

Consider `CCC1(CC)C(=O)[N-]C(=O)[N-]C1=O.[Au+].[Au+].c1ccc([PH+](c2ccccc2)c2ccccc2)cc1.c1ccc([PH+](c2ccccc2)c2ccccc2)cc1`, for which the GI50 in [2] was 1.05 µM; in assay [3], 1.02 µM; in assay [9], 1.74 µM; in assay [5], 2.08 µM. In addition, the TGI in [2] was determined as 2.26 µM; in assay [3] it was 2.2 µM; in assay [9] it was 3.36 µM; in [5], 4.75 µM.

Take `O=C1C2=C(c3ccccc31)C(c1ccc(Cl)cc1)NC(=S)N2` (stereo unspecified): the concentration for total growth inhibition (TGI) was 58.7 µM in assay [1]; above 100 µM in assay [2]; 41.2 µM in assay [8]; 70.9 µM in assay [3]; 37.8 µM in assay [4]; 64.9 µM in [9]. Further, the figures for the TGI in [10], in assay [5] and in [7] were 54.6 µM, 40.3 µM and 35.9 µM, respectively.

With `O=C1C2=C(c3ccccc31)C(c1ccc(F)cc1)N1C(=O)CCSC1=N2` (stereo unspecified), the TGI was above 100 µM in assay [1]; above 100 µM in assay [2]; 97.7 µM in [8]; above 100 µM in [3]; above 100 µM in [4]; above 100 µM in assay [9]. The TGI in [10], in [5] and in [7] was above 100 µM each time.

Turning to `Cc1ccc(C)c2c1CCc1cc3ccccc3nc1-2`, the total growth inhibition concentration (TGI) in [1], in [2], in assay [3], in [4], in [9] and in assay [10] was above 100 µM each time. Also, the total growth inhibition concentration (TGI) in [5] and in [7] was above 100 µM each time.
